# Data reported in patent US12533370B2, “Compositions and methods of potentiating antimicrobials” (priority 2016, dated 2026).
# Key:
# [1] = test system: MRSA/VISA clinical strain No 111; assay: MIC and Fic index for gentamicin with and without CBD, Example 9; format: cell-based, Staphylococcus aureus; conditions: for MIC value: agent alone
# Experimental: (§1) The term “minimal inhibitory concentration” or “MIC” as used herein relates to the minimal concentration of an agent, or a combination of agents, in which bacteria are substantially killed or at least not substantially grow. The cutoff value to determine the MIC in the experimental section was set to an optical density (OD) value of ≤0.1 after an overnight incubation of the bacteria together with the tested antibacterial agent(s).
# (§2) Fractional Inhibitory Concentration values (FicA and FicB) and Fic index were calculated for each combination of compounds and clinical isolate using the following standard equations for this analysis: Fic index=FicA+FicB FicA=MIC of compound A (CBG) in combination/MIC of compound A alone. FicB=MIC of compound B (gentamicin) in combination/MIC of compound B alone.
# (§3) Synergy is defined as a Fic index value of ≤0.5. Indifference or no interaction will be defined as a FIC index value of >0.5 and <4. Antagonism will be defined as a FIC index value of >4. When the FIC index value is within the range of 0.5-1, the combination is considered to be non-synergistic or additive.
# (§4) The goal of the current experiment was to determine the minimal inhibitory concentration (MIC) for gentamicin with and without CBD on methicillin-resistant Staphylococcus aureus (MRSA) and vancomycin-resistant Staphylococcus aureus (MRSA) (VISA) clinical strain No 111 from Souraski Medical Center, Tel Aviv, Israel. The cutoff value to determine the MIC was set to an optical density (OD) value of ≤0.1.
# (§5) Fractional Inhibitory Concentration values (FicA and FicB) and Fic index were calculated for each combination of compounds and clinical isolate using the same calculation as in example 7.
# [2] = test system: MRSA/VISA clinical strain No 111; assay: MIC and Fic index for gentamicin with and without CBG, Example 7; format: cell-based, Staphylococcus aureus; conditions: for MIC value: agent alone, OD cutoff ≤0.1
# Experimental: as §1
# as §4, with “CBG” for “CBD”
# as §2, §3
# [3] = test system: methicillin-resistant Staphylococcus aureus (MRSA) violent clinical strain 760330509; assay: MIC and Fic index for gentamicin with and without CBG, Example 8; format: cell-based; conditions: for MIC value: agent alone
# Experimental: as §1, §2, §3
# as §4, with “CBG” for “CBD”, “violent” for “and vancomycin-resistant Staphylococcus aureus (MRSA) (VISA)”, “760330509” for “No 111”
# as §5
# [4] = test system: S. aureus ATCC strain 25923 (gentamicin-sensitive); assay: Minimal inhibitory concentration (MIC) for gentamicin with and without THC, Example 2; format: cell-based, Staphylococcus aureus; conditions: OD cutoff ≤0.1
# Experimental: (§6) In certain embodiments, the method of testing the anti-bacterial efficacy of a composition (or any test solution), comprises the following steps: (a) inoculation of bacteria (e.g. from a −80° C. stock) into 3 mL Muller Hinton (MH) medium; (b) incubation of the inoculated medium at 37° C. under agitation of 250 rpm for 18-20 hours, thus obtaining a starter culture; (c) diluting the starter culture using saline to obtain working cultures of 5*10^5 or 10^6 bacteria/mL; (d) combining the […] and the tested composition in a test container, e.g. a 96-well plate; (e) incubating the test container at 37° C. under shaking (100 rpm) for 18-20 hours; and (f) determining the viability of bacteria in the test container, thus determining the anti-bacterial efficacy of the composition, e.g. via determining the optical density (OD) of the bacterial culture. Routine calibrations and/or modifications of this method are well within the capabilities of any person of average skill in the art.
# (§7) The term “minimal inhibitory concentration” or “MIC” as used herein relates to the minimal concentration of an agent, or a combination of agents, in which bacteria are substantially killed or at least not substantially grow. […]
# Streptococcus pneumoniae = assay: MIC for carbenicillin with and without THC, Example 6; format: cell-based; conditions: agent alone, OD cutoff ≤0.1
# Experimental: as §6, §7
# [5] = test system: established S. aureus ATCC strain 25923 (gentamicin-sensitive) biofilm; assay: MIC for gentamicin with and without THC on established biofilm, Example 10; format: cell-based, Staphylococcus aureus; conditions: agent alone; OD cutoff ≤0.1
# Experimental: as §1
# The goal of the current experiment was to determine the minimal inhibitory concentration (MIC) for gentamicin with and without THC on an established S. aureus ATCC strain 25923 (gentamicin-sensitive) biofilm. The cutoff value to determine the MIC was set to an optical density (OD) value of ≤0.1.
# [6] = test system: methicillin-resistant Staphylococcus aureus (MRSA); assay: MIC for ampicillin with and without THC on MRSA, Example 5; format: cell-based; conditions: read-out: MIC value
# Experimental: as §6, §7
# [7] = test system: S. aureus ATCC strain 25923 (gentamicin-sensitive); assay: Minimal bactericidal concentration (MBC), Example 1; format: cell-based, Staphylococcus aureus
# Experimental: The goal of the current experiment was to determine the minimal bactericidal concentrations (MBC) for THC with and without PEA on S. aureus ATCC strain 25923 (gentamicin-sensitive).
# • 1. Incubation of the S. aureus (from a −80° C. stock) in 3 ml Muller Hinton (MH, Difco) medium at 37° C. under agitation of 250 rpm for 18-20 hours (this culture served as a starter for the experiment); • 2. Dilution of the starter culture using saline to obtain working cultures of 5*10^5 and 10^6 C.F.U/mL bacteria, respectively. • 3. Diluting the THC (0.125 mg/mL in saline) with or without PEA or gentamicin in a 96-well plate. • 4. Incubation of the plates at 37° C. under shaking (100 rpm) for 18-20 hours. • 5. In the following day, the bacteria in the wells suspended in saline were evaluated for their C.F.U/mL to determine the MBC.
# [8] = test system: S. aureus ATCC strain 25923 (gentamicin-sensitive); assay: MIC for gentamicin with and without THC, Example 3; format: cell-based, Staphylococcus aureus; conditions: OD cutoff ≤0.1
# Experimental: as §6, §7
# [9] = test system: methicillin-resistant Staphylococcus aureus (MRSA); assay: MIC for gentamicin with and without THC on MRSA, Example 4; format: cell-based
# Experimental: as §6, §7
# [10] = Staphylococcus aureus, read-out: MIC value
# [11] = Staphylococcus aureus, ATCC25923, agent alone
compound,measurement,setting,value
"C=C(C)[C@@H]1CCC(C)=C[C@H]1c1c(O)cc(CCCCC)cc1O [CBD, cannabidiol]",FicA value (MIC of CBD in combination/MIC alone),[1]; 32 μg/mL Gen.+1 μg/mL CBD,0.125
same,MIC,"[1]; Staphylococcus aureus, read-out: MIC value, agent alone, MRSA/VISA strain No 111, OD cutoff ≤0.1",~8 µg/mL
"CCCCCc1cc(O)c(C/C=C(\C)CCC=C(C)C)c(O)c1 [CBG, cannabigerol]",FicA value (MIC of CBG in combination/MIC alone),[2]; 64 μg/mL Gen.+1 μg/mL CBG,0.125
same,MIC value for CBG alone,[2]; MRSA/VISA strain No 111,about 8 n g/mL
same,MIC,[2]; [10],8 µg/mL
same,FicA value (MIC of CBG in combination/MIC alone),[3]; 32 μg/mL Gen.+1 μg/mL CBG,0.125
same,MIC,"[3]; Staphylococcus aureus, MRSA, read-out: MIC value, agent alone, MRSA strain 760330509, OD cutoff ≤0.1",~8 µg/mL
"CCCCCc1cc(O)c2c(c1)OC(C)(C)[C@@H]1CCC(C)=C[C@@H]21 [THC, tetrahydrocannabinol]",MIC,[4]; [11],~1 µg/mL
same,MIC,Streptococcus pneumoniae,~2 µg/mL
same,MIC value on established biofilm,[5],about 0.004 mg/mL
same,MIC,[6],~2 µg/mL
same,MBC,"[7]; Staphylococcus aureus, ATCC25923, agent alone, S. aureus ATCC 25923",~7.8 µg/mL
same,fold decrease of MBC compared to gentamicin alone,[7]; THC alone vs gentamicin alone,32 fold
same,MIC,[8]; [11],~2 µg/mL
same,MIC,[9]; [10],~2 µg/mL
CC1(C)S[C@@H]2[C@H](NC(=O)[C@H](N)c3ccccc3)C(=O)N2[C@H]1C(=O)O [ampicillin],MIC,[6],~500 µg/mL
CC1(C)S[C@@H]2[C@H](NC(=O)C(C(=O)O)c3ccccc3)C(=O)N2[C@H]1C(=O)O (stereo partly shown) [carbenicillin],MIC,Streptococcus pneumoniae,~0.2 µg/mL
gentamicin,MIC value,[4]; agent alone,about 0.001 mg/mL
same,MIC value on established biofilm,[5],over 0.002 mg/mL
same,MBC value,"[7]; agent alone, S. aureus ATCC 25923",250 µg/mL
same,MIC value,[8]; agent alone,about 0.002 mg/mL
same,FicB value (MIC of gentamicin in combination/MIC alone),[2]; 64 μg/mL Gen.+1 μg/mL CBG,0.25
same,MIC value,[2]; MRSA/VISA strain No 111,about 256 μg/mL
same,MIC value,"[2]; MRSA/VISA strain No 111, listed as Gen.",256 µg/mL
same,MIC value,"[9]; agent alone, OD cutoff ≤0.1",about 0.125 mg/mL
same,FicB value (MIC of gentamicin in combination/MIC alone),[3]; 32 μg/mL Gen.+1 μg/mL CBG,0.25
same,MIC value,"[3]; MRSA strain 760330509, OD cutoff ≤0.1",about 128 μg/mL
same,MIC value,"[3]; MRSA strain 760330509, OD cutoff ≤0.1, listed as Gen.",128 µg/mL
same,FicB value (MIC of gentamicin in combination/MIC alone),[1]; 32 μg/mL Gen.+1 μg/mL CBD,0.125
same,MIC value,"[1]; MRSA/VISA strain No 111, OD cutoff ≤0.1",about 256 μg/mL
same,MIC value,"[1]; MRSA/VISA strain No 111, OD cutoff ≤0.1, listed as Gen.",256 µg/mL
